According to patent publication US20040266843A1, “Sulfonamide substituted indolinones as inhibitors of DNA dependent protein kinase (DNA-PK)” (Sugen, Inc., priority 2003, published 2004):

Legend:
DNA-PKcs = DNA-PKcs (Homo sapiens, UniProt P78527); assay: DNA-PK assay, Scintillation Proximity Assay (SPA) format; type: biochemical; details: room temperature, 0.23 nM DNA-PKcs, 0.3 μM ATP, 1% DMSO
Procedure: The assay for DNA-PK was optimized to be performed in 96-well plates using a Scintillation Proximity Assay (SPA) format at room temperature. […] When inhibitors were included, they were diluted to 5× the desired concentration in 5% DMSO and diluted 1:5 in the reaction mixture bringing the final DMSO concentration to 1%. […] Activating DNA-DNA fragment consisting of 32 complementary base pairs with 5 non-complementary T's on both ends of the two strands Sequence-[NT], and of the complementary strand-[NT]. […] Peptide substrate-biotin-[…]. Dissolved in DMSO at a concentration of 5 mg/ml for the stock solution. Alternatively, fragments of the peptide substrate can be used, such as, without limitation, […]. The kinase reaction was stopped by adding […] of a solution containing 50 μM ATP, 5 mM EDTA, 0.1% Triton X-100, and 0.5 mg of streptavidin coated polyvinyltoluene SPA beads (Amersham). After a 10 min. incubation and a short spin (to pellet the beads), the plates were read on a Trilux plate reader.

[1] = Storage stability of stock solution; type: physicochemical; details: 2 mM in DMSO, stored at −70° C., after 12 months
Procedure: 3-[2,4-Diethyl-5-(2-oxo-5-phenylsulfamoyl-1,2-dihydro-indol-3-ylidenemethyl)-1H-pyrrol-3-yl]-propionic acid was dissolved in DMSO at 20 mg/ml and stored at −70° C. Calicheamicin μl was a generous gift from George Ellestad (Wyeth-Ayers Research). The drug was dissolved at 2 mM in DMSO (Sigma) and stored at −70° C. […] Wortmannin (Sigma) was dissolved at 1 mg/ml in DMSO and stored at −70° C. Recombinant p110 was purchased from Alexis and stored at −70° C. The glioblastoma cell line Mo59K and primary human fibroblasts was grown in Dulbecos MEM with glutamax (Invitrogen) supplemented with 10% Fetal calf serum, streptomycin and penicillin at 37° C. in a humidified cell incubator with 5% CO2. FACS analysis of cell cycle distribution after propiumiodide staining was done using standard protocols. Monolayers were irradiated on ice using a Philips RT 100 X-ray machine. An acceleration voltage of 70 kV was used.

DNA-PKcs, sequence (P78527 whole entry, the tested form may be a part): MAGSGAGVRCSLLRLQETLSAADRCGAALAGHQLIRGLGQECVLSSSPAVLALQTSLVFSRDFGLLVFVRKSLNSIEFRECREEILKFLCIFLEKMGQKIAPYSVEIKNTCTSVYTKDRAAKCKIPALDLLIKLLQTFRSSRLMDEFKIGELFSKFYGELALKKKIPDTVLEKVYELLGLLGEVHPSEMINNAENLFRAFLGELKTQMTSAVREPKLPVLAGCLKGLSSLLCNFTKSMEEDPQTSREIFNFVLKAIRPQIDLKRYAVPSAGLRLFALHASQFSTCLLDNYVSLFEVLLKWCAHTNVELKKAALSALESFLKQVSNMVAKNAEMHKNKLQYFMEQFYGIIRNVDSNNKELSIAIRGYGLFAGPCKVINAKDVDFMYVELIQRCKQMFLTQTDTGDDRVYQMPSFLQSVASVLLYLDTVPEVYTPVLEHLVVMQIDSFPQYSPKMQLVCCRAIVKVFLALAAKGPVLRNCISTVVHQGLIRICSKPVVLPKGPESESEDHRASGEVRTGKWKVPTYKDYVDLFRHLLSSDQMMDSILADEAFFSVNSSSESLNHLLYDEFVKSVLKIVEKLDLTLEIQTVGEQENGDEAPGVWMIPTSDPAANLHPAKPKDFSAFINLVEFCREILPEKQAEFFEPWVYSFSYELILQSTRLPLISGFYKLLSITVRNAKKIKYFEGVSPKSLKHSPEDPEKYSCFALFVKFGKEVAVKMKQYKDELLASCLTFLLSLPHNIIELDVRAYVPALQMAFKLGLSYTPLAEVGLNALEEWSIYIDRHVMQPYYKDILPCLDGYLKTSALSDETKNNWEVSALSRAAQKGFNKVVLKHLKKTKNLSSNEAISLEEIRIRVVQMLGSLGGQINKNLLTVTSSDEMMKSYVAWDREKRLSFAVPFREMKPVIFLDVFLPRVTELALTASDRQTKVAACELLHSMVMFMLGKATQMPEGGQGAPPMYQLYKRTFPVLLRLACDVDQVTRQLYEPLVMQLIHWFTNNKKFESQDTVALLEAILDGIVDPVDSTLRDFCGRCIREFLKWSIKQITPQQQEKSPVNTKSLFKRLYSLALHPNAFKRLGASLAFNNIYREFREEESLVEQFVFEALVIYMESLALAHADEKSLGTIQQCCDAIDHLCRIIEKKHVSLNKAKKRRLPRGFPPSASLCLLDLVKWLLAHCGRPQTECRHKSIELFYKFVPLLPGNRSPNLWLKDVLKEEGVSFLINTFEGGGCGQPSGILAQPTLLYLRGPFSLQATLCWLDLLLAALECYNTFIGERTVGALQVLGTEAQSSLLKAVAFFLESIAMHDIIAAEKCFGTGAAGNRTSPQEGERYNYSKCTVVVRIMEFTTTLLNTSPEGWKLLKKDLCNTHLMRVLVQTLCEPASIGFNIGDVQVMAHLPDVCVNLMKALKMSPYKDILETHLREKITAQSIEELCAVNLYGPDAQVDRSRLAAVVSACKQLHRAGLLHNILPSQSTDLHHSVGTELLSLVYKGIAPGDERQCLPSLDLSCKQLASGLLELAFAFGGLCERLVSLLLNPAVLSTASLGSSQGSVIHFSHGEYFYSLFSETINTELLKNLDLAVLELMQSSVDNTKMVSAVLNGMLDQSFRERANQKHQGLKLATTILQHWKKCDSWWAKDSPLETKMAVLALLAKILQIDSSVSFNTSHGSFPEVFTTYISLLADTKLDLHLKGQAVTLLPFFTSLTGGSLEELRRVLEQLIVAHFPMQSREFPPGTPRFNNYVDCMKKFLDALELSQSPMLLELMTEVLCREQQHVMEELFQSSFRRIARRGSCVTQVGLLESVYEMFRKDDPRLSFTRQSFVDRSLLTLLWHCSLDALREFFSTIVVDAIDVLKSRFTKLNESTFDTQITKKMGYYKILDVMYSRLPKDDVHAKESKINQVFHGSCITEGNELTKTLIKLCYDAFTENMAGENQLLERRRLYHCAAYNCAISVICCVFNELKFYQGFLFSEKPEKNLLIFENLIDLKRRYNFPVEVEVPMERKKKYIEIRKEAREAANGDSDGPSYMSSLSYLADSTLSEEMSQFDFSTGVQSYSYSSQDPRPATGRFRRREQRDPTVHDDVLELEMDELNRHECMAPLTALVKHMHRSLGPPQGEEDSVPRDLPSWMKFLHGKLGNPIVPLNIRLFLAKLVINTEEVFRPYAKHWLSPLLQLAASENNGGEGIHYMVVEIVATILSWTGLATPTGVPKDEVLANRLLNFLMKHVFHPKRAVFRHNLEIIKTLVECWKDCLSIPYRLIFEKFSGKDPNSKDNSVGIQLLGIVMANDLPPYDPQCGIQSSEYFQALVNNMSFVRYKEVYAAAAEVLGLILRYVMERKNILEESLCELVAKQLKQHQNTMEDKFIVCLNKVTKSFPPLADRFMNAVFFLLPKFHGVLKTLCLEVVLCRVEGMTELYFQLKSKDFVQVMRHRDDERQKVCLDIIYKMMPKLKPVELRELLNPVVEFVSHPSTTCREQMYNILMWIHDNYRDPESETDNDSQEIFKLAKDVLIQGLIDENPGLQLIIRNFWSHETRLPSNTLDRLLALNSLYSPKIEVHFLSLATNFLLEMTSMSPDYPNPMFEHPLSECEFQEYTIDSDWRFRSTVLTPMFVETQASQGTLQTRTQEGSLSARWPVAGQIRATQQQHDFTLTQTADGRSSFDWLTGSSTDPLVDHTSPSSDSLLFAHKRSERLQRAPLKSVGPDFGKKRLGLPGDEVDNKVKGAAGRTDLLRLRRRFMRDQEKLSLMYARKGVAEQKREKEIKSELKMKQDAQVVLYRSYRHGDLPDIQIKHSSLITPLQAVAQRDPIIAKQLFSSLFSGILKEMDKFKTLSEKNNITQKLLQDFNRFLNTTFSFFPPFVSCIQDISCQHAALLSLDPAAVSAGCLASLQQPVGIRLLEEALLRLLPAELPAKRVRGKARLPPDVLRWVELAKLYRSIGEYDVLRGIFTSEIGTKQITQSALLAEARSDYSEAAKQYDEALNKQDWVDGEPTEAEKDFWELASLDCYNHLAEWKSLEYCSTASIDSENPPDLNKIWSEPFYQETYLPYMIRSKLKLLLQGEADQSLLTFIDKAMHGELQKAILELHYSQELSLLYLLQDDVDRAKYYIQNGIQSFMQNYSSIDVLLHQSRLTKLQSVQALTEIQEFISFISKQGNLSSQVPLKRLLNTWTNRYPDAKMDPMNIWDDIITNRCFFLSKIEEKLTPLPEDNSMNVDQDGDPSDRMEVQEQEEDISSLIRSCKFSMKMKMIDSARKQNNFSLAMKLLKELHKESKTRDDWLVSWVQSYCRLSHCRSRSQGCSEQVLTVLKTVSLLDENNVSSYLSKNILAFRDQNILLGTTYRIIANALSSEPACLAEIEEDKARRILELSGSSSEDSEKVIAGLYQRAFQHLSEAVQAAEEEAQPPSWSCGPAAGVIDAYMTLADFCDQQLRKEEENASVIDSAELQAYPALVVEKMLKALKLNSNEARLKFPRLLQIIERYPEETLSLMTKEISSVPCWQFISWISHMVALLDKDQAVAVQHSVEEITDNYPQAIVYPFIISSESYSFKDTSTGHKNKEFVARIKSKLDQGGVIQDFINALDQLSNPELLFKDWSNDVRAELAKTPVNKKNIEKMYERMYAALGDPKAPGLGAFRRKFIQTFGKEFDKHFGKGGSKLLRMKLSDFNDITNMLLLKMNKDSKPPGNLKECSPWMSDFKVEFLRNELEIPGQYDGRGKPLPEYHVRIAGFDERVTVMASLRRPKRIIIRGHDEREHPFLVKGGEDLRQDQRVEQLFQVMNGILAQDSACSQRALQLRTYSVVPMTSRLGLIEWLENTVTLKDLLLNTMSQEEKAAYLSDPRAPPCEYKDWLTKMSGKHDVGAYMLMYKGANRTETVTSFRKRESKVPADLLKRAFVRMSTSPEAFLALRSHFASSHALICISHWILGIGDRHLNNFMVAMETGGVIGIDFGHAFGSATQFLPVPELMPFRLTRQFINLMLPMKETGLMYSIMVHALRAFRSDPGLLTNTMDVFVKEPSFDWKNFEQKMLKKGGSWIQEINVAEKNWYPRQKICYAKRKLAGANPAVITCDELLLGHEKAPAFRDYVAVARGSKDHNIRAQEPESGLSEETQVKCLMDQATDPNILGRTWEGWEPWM

Compound | IC50 (DNA-PKcs) | loss of activity on storage [1]
2-oxo-3-[5-(2-pyrrolidin-1-yl-ethoxy-1H-indol-2-ylmethylene]-2,3-dihydro-1H-indole-sulfonic acid amide | 1700 nM | 
CNS(=O)(=O)c1ccc2c(c1)C(=Cc1[nH]c3c(c1CCCN(C)C)CCCC3)C(=O)N2 [3-{3-(3-dimethylamino-propyl)-4,5,6,7-tetrahydro-1H-indol-2-ylmethylene]-2-oxo-2,3-dihydro-1H-indole-5-sulfonic acid methylamide] | 66000 nM | 
Cc1c(CCC(=O)O)c[nH]c1/C=C1\C(=O)Nc2ccc(I)cc21 [3-{5-[(Z)-(5-iodo-2-oxo-1,2-dihydro-3H-indol-3-ylidene)methyl]-4-methyl-1H-pyrrol-3-yl}propanoic acid] | 1500 nM | 
CCN(CC)CCNC(=O)c1c(C)[nH]c(C=C2C(=O)Nc3ccc(Br)cc32)c1C [5-(5-bromo-2-oxo-1,2-dihydro-indol-3-ylidenemethyl)-2,4-dimethyl-1H-pyrrole-3-carboxylic acid-(2-diethylamino-ethyl)-amide] | 34000 nM | 
CCc1[nH]c(/C=C2\C(=O)Nc3ccc(S(=O)(=O)Nc4ccccc4)cc32)c(CC)c1CCC(=O)O [Example 83, 3-[2,4-Diethyl-5-(2-oxo-5-phenylsulfamoyl-1,2-dihydro-indol-3-ylidenemethyl)-1H-pyrrol-3-yl]-propionic acid] | 1600 nM | 
calicheamicin μl |  | no loss of activity
